The source of these data is patent US4293700A, “2,6-Dimethyl-1,4-dihydropyridine-3,5-dicarboxylic acid esters and method for preparing same” (priority 1978, dated 1981).

Counter-ions that a name gives are not always drawn.

The test system of one series is sarcoma 536. In words: Antimetastatic activity: life duration of rats with sarcoma 536. Particulars: Sarcoma 536 (rats), 10 days. Type of series: in vivo. Here is the method: (§1) Antimetastatic properties of esters of 2,6-dimethyl-1,4-dihydropyridine-3,5-dicarboxylic acid have been tested on Walker carcinosarcoma, sarcoma 536 and Lewis pneumocarbinoma using mice and rats as test animals. The preparations were administered for 10 days. Two procedures of the administration of these compounds prior to the removal of the primary tumor and introduction of the compound after the removal of the primary tumor. The efficiency of antimetastatic activity of esters of 2,6-dimethyl-1,4-dihydropyridine-3,5-dicarboxylic acid is assessed by the increase of the life duration of the test animals expressed as percentage of the life duration of the animals administered no preparation and serving as the control.

In another series the test system is Walker carcinosarcoma. The series is described as follows: Antimetastatic activity: life duration of rats with Walker carcinosarcoma. Type of series: in vivo. Particulars: for Life duration, % of the control: Walker carcinosarcoma (rats), 10 days; for increase of the life time: rats, after the removal of Walker carcinoma. Here is the method: as §1
Thus, disodium salt of carboxylatomethyl ester of 2,6-dimethyl-1,4-dihydropyridine-3,5-dicarboxylic acid administered in doses of 50 and 100 mg/kg during the period after the removal of Walker carcinoma increases the life time of the rest rats by 120 and 93% respectively. […] The effect of the compounds is most pronounced in tests with Walker carbinosarcoma on rats; a high efficiency is also noticed for sarcoma 536 with rats; less pronounced is the effect on Lewis lungs carcinoma with mice. The use of esters of 2,6-dimethyl-1,4-dihydropyridine-3,5-dicarboxylic acid provides no negative effect on physiological functions and behaviour of the test animals.

Another series is described as follows: Solubility. The format is physicochemical.
Another series relates to Lewis lungs carcinoma. In words: Antimetastatic activity: life duration of mice with Lewis lungs carcinoma. The format is in vivo. The note with it: after the removal of the primary tumor, 10 days. Here is the method: as §1
The conditions of series [1]: cited from earlier work.
For a further series, the system named is metastases. The note with it: in words; cited from earlier work.
Setting [2] is: after the removal of the primary tumor, daily dose 50 mg/kg.
[3] abbreviates: after the removal of the primary tumor, daily dose 150 mg/kg.
The mark [4] stands for this setting: before the removal of the primary tumor, daily dose 100 mg/kg.

Take `CC1=C(C(=O)OCC(=O)O)CC(C(=O)OCC(=O)O)=C(C)N1` [disodium carboxylate-methyl ester, disodium salt of carboxylate-methyl ester of 2,6-dimethyl-1,4-dihydropyridine-3,5-dicarboxylic acid]: the “Life duration, % of the control” value was 129% with sarcoma 536 (setting [2]); 132% in the series on sarcoma 536 (setting [3]); 152% with sarcoma 536 (setting [4]); 138% with sarcoma 536 (before the removal of the primary tumor, daily dose 150 mg/kg); 220% in the series on Walker carcinosarcoma (setting [2]); 193% in the series with Walker carcinosarcoma (after the removal of the primary tumor, daily dose 100 mg/kg). For the same compound, the “Life duration, % of the control” value amounted to 112% in the series on Walker carcinosarcoma (setting [3]); 130% in the series with Walker carcinosarcoma (before the removal of the primary tumor, daily dose 50 mg/kg); 150% in the series on Walker carcinosarcoma (setting [4]); 120% in the series with Lewis lungs carcinoma (daily dose 100 mg/kg); 113% in the series with Lewis lungs carcinoma (daily dose 150 mg/kg). The “increase of the life time” value in the series on Walker carcinosarcoma (50 mg/kg) is recorded as 120%; in the series on Walker carcinosarcoma (100 mg/kg), 93%. Also, the solubility in alcohol result in “Solubility” is listed as “sparingly soluble in alcohol”. For the same compound, the solubility in water result in “Solubility” is listed as “highly soluble in water”.
For the compound `CC1=C(C(=O)OC2CC(C)CCC2C(C)C)CC(C(=O)OC2CC(C)CCC2C(C)C)=C(C)N1` (centres unmarked) [menthyl ester, Menthyl ester of 2,6-dimethyl-1,4-dihydropyridine-3,5-dicarboxylic acid], in the series with Walker carcinosarcoma (prior to the removal of the primary tumor, daily dose 150 mg/kg), the “Life duration, % of the control” value is 116%. The “Life duration, % of the control” value in the series on Walker carcinosarcoma (prior to the removal of the primary tumor, daily dose 300 mg/kg) amounted to 165%. Further, the solubility in acetone entry in the series “Solubility” (acetone) is “highly-soluble”. Also, in the series “Solubility”, the solubility in alcohol result is “highly-soluble” and the solubility in water result is given as “insoluble in water”. The solubility in benzene entry in “Solubility” (benzene) is given as “highly-soluble”. The solubility in chloroform result in “Solubility” (chloroform) is “highly-soluble”.
Regarding `CC(CN1CC(=O)NC(=O)C1)N1CC(=O)NC(=O)C1` (racemic) [JCFR-159, (±) 1,2-bis(3,5-dioxopiperazin-1-yl)propane], the side effects entry in series [1] (in vivo) is “causes leucopenia, thrombocytopenia and dyspeptic phenomena”. In addition, the toxicity result in series [1] (in words) is given as “somewhat toxic”. Further, the LD50 in series [1] (species and route not given) is on record as 1,000 mg/kg. Further, the antimetastatic activity entry in the series on metastases was “certain antimetastic activity”.
